The assay deals with Sigma non-opioid intracellular receptor 1 (Cavia porcellus, UniProt Q60492). As to the kind of experiment: Sigma 1 Assay. The settings on record: pH 7.4; 37 °C. On the procedure: The test was performed with the radioligand [3H]-(+)-pentazocine (42.5 Ci/mmol) from Perkin Elmer.
Sigma non-opioid intracellular receptor 1, sequence (Q60492 whole entry): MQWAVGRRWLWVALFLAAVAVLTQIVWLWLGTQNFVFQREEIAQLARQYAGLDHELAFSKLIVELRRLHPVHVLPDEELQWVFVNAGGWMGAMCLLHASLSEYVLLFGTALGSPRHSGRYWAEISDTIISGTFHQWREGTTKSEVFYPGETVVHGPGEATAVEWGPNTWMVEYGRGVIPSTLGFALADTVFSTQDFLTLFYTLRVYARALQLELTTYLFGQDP
With `Fc1ccc(N2CCN(CCCn3ccc4ccccc43)CC2)cc1` [1-{3-[4-(substitutedphenyl)piperazin1-yl]propyl}-1 H-indole, 4a], the affinity corresponds to a Ki of 456 nM. This lies in the sub-micromolar range. `Clc1ccc(CN2CCN(Cc3c[nH]c4ccccc34)CC2)cc1Cl` [3-{[4-(substitutedphenyl/benzyl)piperazin1-yl]methyl}-1 H-indole, 1c] displayed a Ki of 126 nM.

In turn, `Fc1ccc(N2CCN(Cc3c[nH]c4ccccc34)CC2)cc1` [3-[[4-(4-fluorophenyl)piperazin-1-yl]methyl]-1H-indole] showed a Ki of 3640 nM.

In turn, `Fc1ccc(F)c(CN2CCN(Cc3c[nH]c4ccccc34)CC2)c1` [3-{[4-(substitutedphenyl/benzyl)piperazin1-yl]methyl}-1 H-indole, 1b] yielded a Ki of 216 nM. As for `Fc1ccccc1N1CCN(CCCn2ccc3ccccc32)CC1` [1-{3-[4-(substitutedphenyl)piperazin1-yl]propyl}-1 H-indole, 4b], the figure is 264 nM; as for `Cc1cn(CN2CCN(c3ccc(F)cc3)CC2)c2ccccc12` [1-{[4-(substitutedphenyl/phenylethyl)piperazin1-yl]methyl}-3-methyl-1 H-indole, 3a], 1000 nM; as for `Fc1ccc(N2CCN(Cc3cn(CN4CCN(c5ccc(F)cc5)CC4)c4ccccc34)CC2)cc1` [1,3-di-{[4-(4-fluorophenyl)piperazin1-yl]methyl}-1 H-indole, 2a], 2690 nM. As for `Cc1cn(CN2CCN(CCc3ccccc3)CC2)c2ccccc12` [1-{[4-(substitutedphenyl/phenylethyl)piperazin1-yl]methyl}-3-methyl-1 H-indole, 3b], the Ki was 14.2 nM.

`c1ccc(N2CCN(CCCn3ccc4ccccc43)CC2)cc1` [1-{3-[4-(substitutedphenyl)piperazin1-yl]propyl}-1 H-indole, 4c] showed a Ki of 1490 nM.

Source of the values: BindingDB's records for doi:10.1111/j.1747-0285.2011.01215.x (Yeditepe University, 2011).
